Experimental data as given in patent publication US9095535B2, “GABA release-regulating agent in cerebellum” (KOREA INSTITUTE OF SCIENCE AND TECHNOLOGY, priority 2009, dated 2015).
Numbering of substitutions follows the chain as printed.

Legend:
Format in all cases: cell-based
GABAc receptors = experiment: Patch clamp of GABAc expressing HEK293 cells challenged with 100 μM GABA; conditions: 100 μM GABA in absence or presence of 100 μM NFA and 100 μM NPPB
Protocol: FIGS. 7a and 7b show the results when GABAc expressing HEK293 cells were patch clamped and challenged with 100 μM GABA in the absence and presence of 100 μM NFA and 100 μM NPPB; and
In FIGS. 7a and 7b, GABAc expressing HEK293 cells were patch clamped and challenged with 100 μM GABA in the absence or presence of 100 μM NFA and 100 μM NPPB.

Best1 channel [1] = target: T1, Best1 channel (Mus musculus, UniProt O88870); conditions: NPPB and NFA at 100 μM; inward current in GABAc sensor cell
T1 construct: mBest1 full-length fragment from pGEM-T easy plasmid (6.65 kb, Promega) was subcloned into pcDNA 3.1; expressed in transfected cells; host or cells: HEK293T (ATCC)
T1 sequence (O88870 1-551 R255K): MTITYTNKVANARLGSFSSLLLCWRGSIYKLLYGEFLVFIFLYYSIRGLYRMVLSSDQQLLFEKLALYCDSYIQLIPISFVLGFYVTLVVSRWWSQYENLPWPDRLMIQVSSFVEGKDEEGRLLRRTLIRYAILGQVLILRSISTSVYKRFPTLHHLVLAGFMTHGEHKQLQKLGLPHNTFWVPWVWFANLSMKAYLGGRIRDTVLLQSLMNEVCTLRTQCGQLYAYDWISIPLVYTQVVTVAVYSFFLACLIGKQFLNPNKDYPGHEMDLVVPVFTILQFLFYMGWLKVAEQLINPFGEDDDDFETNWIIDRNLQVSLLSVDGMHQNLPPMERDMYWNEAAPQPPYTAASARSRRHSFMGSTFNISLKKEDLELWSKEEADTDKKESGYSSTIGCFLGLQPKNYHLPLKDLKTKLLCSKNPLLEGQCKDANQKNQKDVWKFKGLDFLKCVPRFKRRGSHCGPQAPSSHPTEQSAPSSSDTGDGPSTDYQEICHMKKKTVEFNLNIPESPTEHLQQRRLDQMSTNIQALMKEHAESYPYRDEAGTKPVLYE
Excerpt: For Best1 channel to mediate release of GABA, it has to permeate GABA upon channel opening. To test for GABA permeability of Best1 channel, a two-cell sniffer patch technique was developed to directly measure GABA release via Best1 channel in sensor HEK293T cells that express GABAc, and via other channels that are expressed in source HEK293T cells (FIG. 1b).
pIRES-Best1-dsRED plasmid (obtained by cloning Best1 using pIRES-dsRED (Invitrogen)) and GABAc with GFP (obtained by cloning GABAc using pcDNA3.1 (Invitrogen)) were transfected into HEK 293T cells (ATCC) using Effectene transfection reagent (Qiagen). […]
GABA release was induced by a break-though of membrane patch that goes into a whole-cell configuration in the source cell and such the released GABA was monitored and detected by a neighboring sensor cell. Full activation of GABA current was obtained by bath application of 100 μM GABA and the percentage of full activation was calculated (FIGS. 1c and 1d).
Permeated GABA is detected in sensor as an inward current (bottom traces). […] The GABA permeability of said mutant was determined by using cells obtained by transfecting said mutant into HEK293t cell (ATCC). […] The GABA permeability of said AN01 was determined by using cells obtained by transfecting said mutant into HEK293t cell (ACTT).

Best1 channel [2] = target: T2, Best1 channel (Mus musculus, UniProt O88870); conditions: NPPB 50 μM; naïve GFAP-GFP mice; ramp protocol, Vh=−70 mV
T2 construct: from tissue; host or cells: mouse cerebellar slices / sections (Bergmann glial cells)
T2 sequence (O88870 1-551): T1 sequence (O88870 1-551 R255K) with K255R
Protocol: Brain slices were prepared as described in Rossi et al., 2003. For slice recording, either approximately P28 days old or more than 8 weeks old mice were used. Animals were deeply anesthetized with halothane. After decapitation, the brain was quickly excised from the skull and submerged in ice-cold cutting solution (in mM): 250 Sucrose, 26 NaHCO3, 10 D(+)-Glucose, 4 MgCl2, 3 myo-inositol, 2.5 KCl, 2 Sodium pyruvate, 1.25 NaH2PO4, 0.5 Ascorbic acid 0.1 CaCl2, 1 Kynurenic acid, pH 7.4. All solutions were gas-treated with 95% O2-5% CO2. After trimming both sides of vermis, several parasagittal slices with […] thicknesses containing cerebellar lobes were cut using a microtome (Leica VT 1000) and transferred to extracellular ACSF solution (in mM); 126 NaCl, 24 NaHCO3, 1 NaH2PO4, 2.5 KCl, 2.5 CaCl2, 2 MgCl2, 10 D(+)-Glucose, pH 7.4. Slices were incubated for one hour at least at room temperature.
For recording, slices were transferred to an electrophysiological recording chamber (RC-26G, Warner Instruments) which is continuously superfused with ASCF (artificial cerebrospinal fluid, sigma) solution (flow rate; 2 ml/min) and controlled by flower controller (Synaptosoft) and a vacuum pump (Charles Austen, model Capex 8C). […] Fluorescence images were viewed with mercury lamp (Olympus, U-RFL-T). […]

O=C(O)c1cc([N+](=O)[O-])ccc1NCCCc1ccccc1 [NPPB, 5-nitro-2(3-phenylpropylamino)-benzoic acid]
GABA response of GABAc expressing HEK293 cells (GABAc receptors): do not have significant impact
GABA release via Best1 (Best1 channel [1]): completely abolished
Anion current in Bergmann glial cells (Best1 channel [2]): decreased
